The values below come from patent publication US8420657B2 (Novartis AG, priority 2008, dated 2013).

Test [1] addresses T1, GST-JAK2(808-1132) (Homo sapiens, UniProt O60674).
T1 construct: GST-JAK2(808-1132); purchased Invitrogen (Carlsbad, USA) #4288
Nature of the test: JAK2 kinase assay (Caliper mobility shift, LabChip 3000). It is filed as biochemical. The procedure, abridged: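 Eight-point compound series (final 10–0.003 μM) tested on purchased GST-JAK2 kinase domain (808-1132). Peptide FITC-JAK3tide plus ATP reacted 60 min, 30 °C, then quenched with EDTA; turnover from charge-based separation of substrate and product.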

The test system of test [2] is JAK2-dependent nuclear translocation of STAT5-GFP in U-2 OS osteosarcoma cells. Nature of the test: STAT5 nuclear translocation assay (Cellomics), rhEpo stimulated U-2 OS STAT5-GFP cells. The class given is cell-based. The note with it: Homo sapiens, U2OS; STAT5 translocation pathway. The procedure, abridged:
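U-2 OS cells stably expressing STAT5a-GFP and EpoR pre-treated with compound (final 10 μM to 0.003 μM, 0.1% DMSO) for 30 min at 37° C., then stimulated 1 h with 5 U/ml rhEpo. Nuclear-cytoplasmic GFP differential quantified by automated imaging (≥1000 cells/well, Hoechst nuclear mask). IC50 from % translocation normalized to untreated and DMSO-stimulated controls.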

Some results are limits rather than exact numbers.

T1 sequence (O60674 808-1132): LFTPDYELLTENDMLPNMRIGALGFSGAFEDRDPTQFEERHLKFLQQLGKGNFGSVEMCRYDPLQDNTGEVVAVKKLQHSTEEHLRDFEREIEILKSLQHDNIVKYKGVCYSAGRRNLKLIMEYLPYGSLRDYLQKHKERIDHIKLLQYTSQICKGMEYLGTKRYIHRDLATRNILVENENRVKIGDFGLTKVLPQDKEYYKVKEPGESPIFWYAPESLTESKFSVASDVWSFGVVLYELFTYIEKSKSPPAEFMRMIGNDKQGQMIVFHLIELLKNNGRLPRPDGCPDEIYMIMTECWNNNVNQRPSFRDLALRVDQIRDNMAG

For orientation: IC50 means the point on the concentration scale where inhibition reaches its midpoint. For the compound `Fc1cc(-n2ccc3cnc(Nc4ccnc(CN5CCN(C6CC6)CC5)c4)nc32)cc(F)c1CN1CCOCC1` [Example 407, [2-(4-Cyclopropyl-piperazin-1-ylmethyl)-pyridin-4-yl]-[7-(3,5-difluoro-4-morpholin-4-ylmethyl-phenyl)-7H-pyrrolo[2,3-d]pyrimidin-2-yl]-amine], the 50% inhibitory concentration (IC50) in test [1] was no more than 3 nM; in test [2] it was 305 nM.

As for `O=C1CNCCN1Cc1cc(Nc2ncc3ccn(-c4cc(F)c(CN5CCOCC5)c(F)c4)c3n2)ccn1` [Example 409, 1-{4-[7-(3,5-Difluoro-4-morpholin-4-ylmethyl-phenyl)-7H-pyrrolo[2,3-d]pyrimidin-2-ylamino]-pyridin-2-ylmethyl}-piperazin-2-one], the half-maximal inhibitory concentration (IC50) was no more than 3 nM in test [1] and 81.6 nM in test [2].

Regarding `Cc1ccc(Nc2ncc3ccn(-c4cc(F)c(CN5CCOCC5)c(F)c4)c3n2)cc1CN1CCN(CCN(C)C)C(=O)C1` [Example 410, 4-{5-[7-(3,5-Difluoro-4-morpholin-4-ylmethyl-phenyl)-7H-pyrrolo[2,3-d]pyrimidin-2-ylamino]-2-methyl-benzyl}-1-(2-dimethylamino-ethyl)-piperazin-2-one], the IC50 in test [1] was no more than 3 nM; in test [2], 8.3 nM.

For `Cc1ccc(Nc2ncc3ccn(-c4cc(F)c(CN5CCOCC5)c(F)c4)c3n2)cc1Cn1ccnc1` [Example 412, [7-(3,5-Difluoro-4-morpholin-4-ylmethyl-phenyl)-7H-pyrrolo[2,3-d]pyrimidin-2-yl]-(3-imidazol-1-ylmethyl-4-methyl-phenyl)-amine], the figures for the IC50 in test [1] and in test [2] were no more than 3 nM and 26.5 nM, respectively.

On to `Cc1ccc(Nc2ncc3ccn(-c4cc(F)c(CN5CCOCC5)c(F)c4)c3n2)cc1Cn1cccn1` [Example 413, [7-(3,5-Difluoro-4-morpholin-4-ylmethyl-phenyl)-7H-pyrrolo[2,3-d]pyrimidin-2-yl]-(4-methyl-3-pyrazol-1-ylmethyl-phenyl)-amine], for which the IC50 in test [1] is no more than 3 nM; in test [2], 28.5 nM.

In the case of `Cc1ccc(Nc2ncc3ccn(-c4cc(F)c(CN5CCOCC5)c(F)c4)c3n2)cc1Cn1cnnc1` [Example 414, [7-(3,5-Difluoro-4-morpholin-4-ylmethyl-phenyl)-7H-pyrrolo[2,3-d]pyrimidin-2-yl]-(4-methyl-3-[1,2,4]triazol-4-ylmethyl-phenyl)-amine], the IC50 in test [1] is no more than 3 nM; in test [2] it was 4.2 nM.

Turning to `Cc1ccc(Nc2ncc3ccn(-c4cc(F)c(CN5CCOCC5)c(F)c4)c3n2)cc1CN1CCN(C)CC1=O` [Example 415, 1-{5-[7-(3,5-Difluoro-4-morpholin-4-ylmethyl-phenyl)-7H-pyrrolo[2,3-d]pyrimidin-2-ylamino]-2-methyl-benzyl}-4-methyl-piperazin-2-one], the IC50 is no more than 3 nM in test [1] and 6.9 nM in test [2].

On to `Cc1ccc(Nc2ncc3ccn(-c4cc(F)c(CN5CCOCC5)c(F)c4)c3n2)cc1Cn1cc(CN(C)C)nn1` [Example 418, [7-(3,5-Difluoro-4-morpholin-4-ylmethyl-phenyl)-7H-pyrrolo[2,3-d]pyrimidin-2-yl]-[3-(4-dimethylaminomethyl-[1,2,3]triazol-1-ylmethyl)-4-methyl-phenyl]-amine], for which the values for the 50% inhibitory concentration (IC50) in test [1] and in test [2] were 4.6 nM and 16 nM, respectively.

Take `Cc1ccc(Nc2ncc3ccn(-c4cc(F)c(CN5CCOCC5)c(F)c4)c3n2)cc1Cn1cc(CO)nn1` [Example 419, (1-{5-[7-(3,5-Difluoro-4-morpholin-4-ylmethyl-phenyl)-7H-pyrrolo[2,3-d]pyrimidin-2-ylamino]-2-methyl-benzyl}-1H-[1 2,3]triazol-4-yl)-methanol]: the IC50 in test [1] came to 4.3 nM; in test [2], 38.5 nM.

`Cc1ccc(Nc2ncc3ccn(-c4cc(F)c(CN5CCS(=O)(=O)CC5)c(F)c4)c3n2)cc1CN1CCN(C)CC1` [Example 421, {7-[4-(1,1-Dioxido-thiomorpholin-4-ylmethyl)-3,5-difluoro-phenyl]-7H-pyrrolo[2,3-d]pyrimidin-2-yl}-[4-methyl-3-(4-methyl-piperazin-1-ylmethyl)-phenyl]-amine]: the figures for the IC50 in test [1] and in test [2] were no more than 3 nM and 2.7 nM, respectively.

For the compound `Cc1ccc(Nc2ncc3ccn(-c4cc(F)c(CN5CCS(=O)(=O)CC5)c(F)c4)c3n2)cc1CN1CCN(C)C(=O)C1` [Example 422, 4-(5-{7-[4-(1,1-Dioxido-thiomorpholin-4-ylmethyl)-3,5-difluoro-phenyl]-7H-pyrrolo[2,3-d]pyrimidin-2-ylamino}-2-methyl-benzyl)-1-methyl-piperazin-2-one], the IC50 in test [1] is no more than 3 nM; in test [2] it was 5.7 nM.

`Cc1ccc(Nc2ncc3ccn(-c4cc(F)c(CN5CCS(=O)(=O)CC5)c(F)c4)c3n2)cc1CN1CC(O)C1` [Example 423, 1-(5-{7-[4-(1,1-Dioxido-thiomorpholin-4-ylmethyl)-3,5-difluoro-phenyl]-7H-pyrrolo[2,3-d]pyrimidin-2-ylamino}-2-methyl-benzyl)-azetidin-3-ol]: the IC50 was no more than 3 nM in test [1] and 5.9 nM in test [2].

Consider `Fc1cc(-n2ccc3cnc(Nc4ccc5c(c4)C4CCC5N4)nc32)cc(F)c1CN1CCOCC1` (stereo not shown) [Example 424, [7-(3,5-Difluoro-4-morpholin-4-ylmethyl-phenyl)-7H-pyrrolo[2,3-d]pyrimidin-2-yl]-(1,2,3 4-tetrahydro-1,4-epiazano-naphthalen-6-yl)-amine], for which the IC50 is no more than 3 nM in test [1] and 9 nM in test [2].

For `Cc1ccc(Nc2ncc3ccn(-c4cc(F)c(CN5CCS(=O)(=O)CC5)c(F)c4)c3n2)cc1CN1CCNCC1` [Example 428, {7-[4-(1,1-Dioxido-thiomorpholin-4-ylmethyl)-3,5-difluoro-phenyl]-7H-pyrrolo[2,3-d]pyrimidin-2-yl}-(4-methyl-3-piperazin-1-ylmethyl-phenyl)-amine], the IC50 in test [1] is no more than 3 nM; in test [2] it was 10.7 nM.

`Cc1cc(Nc2ncc3ccn(-c4cc(F)c(CN5CCS(=O)(=O)CC5)c(F)c4)c3n2)cnc1N1C[C@@H](C)N[C@@H](C)C1` [Example 429]: the IC50 is no more than 3 nM in test [1] and 41 nM in test [2].

In the case of `C[C@@H]1CN(c2ncc(Nc3ncc4ccn(-c5cc(F)c(CN6CCS(=O)(=O)CC6)c(F)c5)c4n3)cc2Cl)C[C@H](C)N1` [Example 430, [5-Chloro-6-(cis-3,5-dimethyl-piperazin-1-yl)-pyridin-3-yl]-{7-[4-(1,1-dioxido-thiomorpholin-4-ylmethyl)-3,5-difluoro-phenyl]-7H-pyrrolo[2,3-d]pyrimidin-2-yl}-amine], the IC50 in test [1] was no more than 3 nM; in test [2], 3.6 nM.

As to `Fc1cc(-n2ccc3cnc(Nc4ccc5c(c4)NCC5)nc32)cc(F)c1CN1CCOCC1` [Example 431, [7-(3,5-Difluoro-4-morpholin-4-ylmethyl-phenyl)-7H-pyrrolo[2,3-d]pyrimidin-2-yl]-(2,3-dihydro-1H-indol-6-yl)-amine], the IC50 was found to be 3.2 nM in test [1] and 23.5 nM in test [2].

As to `Cc1cc(Nc2ncc3ccn(-c4cc(F)c(CN5CCS(=O)(=O)CC5)c(F)c4)c3n2)cc(C)c1OCCN1CCOCC1` [Example 432, [3,5-Dimethyl-4-(2-morpholin-4-yl-ethoxy)-phenyl]-{7-[4-(1,1-dioxido-thiomorpholin-4-ylmethyl)-3,5-difluoro-phenyl]-7H-pyrrolo[2,3-d]pyrimidin-2-yl}-amine], the IC50 in test [1] was no more than 3 nM; in test [2], 0.4 nM.

Regarding `Cc1cc(Nc2ncc3ccn(-c4cc(F)c(CN5CCOCC5)c(F)c4)c3n2)cc(C)c1OCCN1CCOCC1` [Example 433, [7-(3,5-Difluoro-4-morpholin-4-ylmethyl-phenyl)-7H-pyrrolo[2,3-d]pyrimidin-2-yl]-[3,5-dimethyl-4-(2-morpholin-4-yl-ethoxy)-phenyl]-amine], the IC50 in test [1] is no more than 3 nM; in test [2], 6.3 nM.

Consider `Cc1ccc(Nc2ncc3ccn(-c4cc(F)c(CN5CCOCC5)c(F)c4)c3n2)cc1CN1[C@H]2CC[C@@H]1CC2` [Example 436, [3-(7-Aza-bicyclo[2.2.1]hept-7-ylmethyl)-4-methyl-phenyl]-[7-(3,5-difluoro-4-morpholin-4-ylmethyl-phenyl)-7H-pyrrolo[2,3-d]pyrimidin-2-yl]-amine], for which the IC50 in test [1] was no more than 3 nM; in test [2] it was 6.1 nM.

Turning to `CN1CCN(c2ccc(Nc3ncc4ccn(-c5ccc6c(c5)CC(=O)N6C)c4n3)cn2)CC1` [Example 448, 1-Methyl-5-{2-[6-(4-methyl-piperazin-1-yl)-pyridin-3-ylamino]-pyrrolo[2,3-d]pyrimidin-7-yl}-1,3-dihydro-indol-2-one], the concentration for half-maximal inhibition (IC50) in test [1] is 5 nM; in test [2] it was 7.4 nM.

Take `Cc1ccc(Nc2ncc3ccn(-c4cc(F)c(CN5CCOCC5)c(F)c4)c3n2)cc1C(=O)N1CCN(C)CC1` [Example 451, {5-[7-(3,5-Difluoro-4-morpholin-4-ylmethyl-phenyl)-7H-pyrrolo[2,3-d]pyrimidin-2-ylamino]-2-methyl-phenyl}-(4-methyl-piperazin-1-yl)-methanone]: the results for the IC50 in test [1] and in test [2] were 3.8 nM and 24 nM, respectively.

As for `Cc1ccc(Nc2ncc3ccn(-c4cc(F)c(CN5CCOCC5)c(F)c4)c3n2)cc1C(=O)N1C[C@@H](C)N[C@@H](C)C1` [Example 452, {5-[7-(3,5-Difluoro-4-morpholin-4-ylmethyl-phenyl)-7H-pyrrolo[2,3-d]pyrimidin-2-ylamino]-2-methyl-phenyl}-(cis-3,5-dimethyl-piperazin-1-yl)-methanone], the figures for the IC50 in test [1] and in test [2] were 6.2 nM and 79.5 nM, respectively.
